US6087336A, “Peptide derivatives useful in treating autoimmune diseases” (Zeneca Limited, priority 1996, dated 2000)

Legend:
HLA-DR4Dw4 = target: T1, HLA-DR4Dw4 (Homo sapiens, UniProt P01903+P01911, A100K/A169T/F76Y/I96L/K127E/L162R/M171V/N62H/P40V/Q125Y/R42H/S133A/S149N/S66Y/V115G/V209L/W38E); experiment: Test A: purified HLA-DR peptide in vitro binding assay; conditions: compared with the other isolated diastereomer
T1 construct: a cDNA encoding the β chain is cloned into the transfer vector pAcUW1; made in house; host or cells: Sf21 insect cells, double-recombinant baculovirus
Experimental: Test A: Purified HLA-DR peptide in vitro binding assay. […]. At the end of the incubation period 100 μl of the incubate is transferred to Enzyme Linked lmmunoSorbant Assay (ELISA) plates (Nunc) previously coated with an anti-MHC antibody (L243--American Type Culture Collection (ATCC) HB55 --as described in Lampson and Levy (1980) J. Immunol. 125, 293-299) at a concentration of 10 μg/ml for 1 hour at room temperature and blocked thereafter for 1 hour with 1% bovine serum albumin (BSA) in PBS and 0.05% Tween 20. After a further 1 hour period the unbound peptide is washed away and a 1/4,000 dilution of streptavidin peroxidase (Sigma) in PBS with 0.01% of a suitable detergent such as NP40 (Sigma) added for 2 hours at room temperature. After further washing, tetramethylbenzidene (TMB) substrate solution (1 TMB tablet (Sigma) in 10 mIs of 0.1 M citrate/acetate buffer, pH 6.0 with 36 μl urea hydrogen peroxide (UHPO) (Fluka)) is added to each of the plates. The reaction is stopped by adding 2M sulphuric acid (10 μl per well) and the absorbance read at 450 nm to quantify the amount of peptide bound. The inhibitory activity of peptides is obtained by plotting absorbance against concentration.
The purified HLA-DR4Dw4 may be obtained as follows:
(i) Expression of HLA-DR in the Baculovirus System
The expression of recombinant proteins in insect cells from baculovirus vectors is an established procedure to obtain high yields of recombinant protein [Luckow, V A & Summers, M D, 1988, Biotechnology, 6, 47-551]. To enable the expression of the heterodimeric HLA-DR, eg. HLA-DR4Dw4, from a single recombinant baculovirus vector (as opposed to having separate recombinant viruses for the α and β chains and then doing a co-infection), a double-recombinant baculovirus is constructed which carries both the α and β chains.
A cDNA encoding the sequence of the α polypeptide is cloned into the transfer vector pacYM1 [Matsuura, Y; Possee, R D; Overton, H A & Bishop, D H L, 1987, J. Gen. […] The molecular genetic techniques used to construct the recombinant vectors are likewise readily available in the literature and are most fully described by Sambrook, J; Fritsch, E F & Maniatis T, (1989) [Molecular Cloning. […]
To create the double-recombinant baculovirus, a cDNA encoding the β chain is cloned into the transfer vector pAcUW1 [Weyer, U; Knight, S & Possee, R D, 1990, J. Gen. […] Double-recombinant viruses are detected by spotting insect cells, infected with randomly picked viruses from the transfection, onto membranes and reacting them with a monoclonal antibody, e.g. L243, which specifically recognises the HLA-DR heterodimer. Binding of the antibody to Sf21 insect cells is detected using standard flow cytometry techniques, readily available in the literature. […]

[1] = system: B52.24 murine T cell hybridoma line; experiment: Test B: inhibition of T cell activation in vitro; format: cell-based; conditions: compared with the other isolated diastereomer
Text: Test B: Inhibition of T cell activation in vitro.
. B52.24 was produced by the fusion of lymph node T cells taken from FHA307-320 immunised HLA-DR4Dw4 transgenic mice (International Patent Application, Publication No WO95/03331) with the BW5147 murine T cell lymphoma line (White et al (1989) J. Immunol. 143, 1822) as outlined in Woods et al (1994) J. Exp. Med. 180, 173-181 and following the general methods for the generation of T cell hybridomas given in Current Protocols in Immunology, Volume 2, 7.21.
Inhibitor peptides at concentrations between 100 and 0.1 μM (or lower) were mixed with the antigenic peptide FHA307-320 in either varying concentrations between 100 and 0.1 μM or at a fixed concentration of 10 μM by dilution in RPM1-1640 culture media (Gibco) in a 96-well mictrotitre plate (Nunc) in a final volume of 100 μl. […]
The culture plates containing supernatants to be assayed were left at room temperature to thaw and […] of supernatant was transferred to fresh 96 round bottomed well plates. […] The contents of each plate were harvested onto glass fibre filter mats and the radioactivity measured using a betaplate scintillation counter.

In the case of “Phv-Ala-Ala-Ala-Lys-Val-III-Ala-Pip-NH2 [more polar diastereomer]”, the “relative potency of diastereomers in Test A” value (HLA-DR4Dw4) is reported as “more potent than the less polar diastereomer” and the “relative potency of diastereomers in Test B” value [1] is reported as “more potent than the less polar diastereomer”.
